# Patent publication US11485751B2, “Apramycin derivatives” (WAYNE STATE UNIVERSITY, priority 2017, dated 2022)
# Assays:
# [1] = tested on: clinical isolates carrying AAC(3)-IV; experiment: MIC broth microdilution, AAC(3)-IV; format: cell-based; conditions: clinical isolates, IMM Univ. Zurich; AAC(3)-IV; read-out: MIC AAC(3)-IV
# In short: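 Clinical isolates supplied by the Zurich Institute of Medical Microbiology were tested for MIC (μg/ml) using CLSI M07-A10 broth microdilution.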
# [2] = tested on: human mitochondrial ribosomes; experiment: in-vitro translation assay, human mitochondrial (human chimeric) ribosomes; format: biochemical
# In short: (§1)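 Cell-free translation; IC50 read-out. Mito = human chimeric ribosomes; cytosolic = rabbit reticulocyte ribosomes; bacterial ribosomes run in the same assay format.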
# ATCC19977 M. abcessus = experiment: MIC reference strain ATCC19977; format: cell-based; conditions: read-out: MIC ATCC19977 M. abcessus
# In short: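 Broth microdilution, CLSI dilution method for aerobic bacteria; read-out is minimal inhibitory concentration (MIC).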
# [3] = tested on: clinical isolates carrying APH(3′)-I; experiment: MIC broth microdilution, APH(3′)-I; format: cell-based; conditions: IMM Univ. Zurich
# From the text: (§2) Minimal inhibitory concentrations (MIC) have been determined by broth microdilution assays (CLSI. Methods for Dilution Antimicrobial Susceptibility Tests for Bacteria That Grow Aerobically; Approved Standard—Tenth Edition. CLSI document M07-A10. Wayne, Pa.: Clinical and Laboratory Standards Institute; 2015.).
# (§3) Minimal inhibitory concentrations (MICs, […]) against clinical isolates from Institute of Medical Microbiology, Univ. Zurich, and the IC50 values for bacterial, human mitochondrial and human cytosolic ribosomes are indicated.
# [4] = tested on: AG212, Escherichia coli ATCC25922; experiment: MIC reference strain AG212; format: cell-based; conditions: Escherichia coli; reference strain ATCC25922; read-out: MIC AG212 E. coli
# In short: (§4)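 The method determines minimal inhibitory concentrations using the standard CLSI microdilution procedure in liquid medium.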
# AG001 E. coli WT = experiment: Antibacterial activity, clinical isolate AG001; format: cell-based; parameters: unit not given here
# In short: (§5)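 Susceptibility was tested per CLSI aerobic dilution protocol using microbroth format, with the MIC taken as the end point.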
# AG163 E. coli APH(3′)-I = experiment: Antibacterial activity, clinical isolate AG163; format: cell-based
# From the text: as §2
# Table 4 and 5 show the antibacterial activity of the compounds of the invention against bacterial reference strains (table 4) and against representative clinical isolates (table 5).
# [5] = tested on: AG039 MRSA AAC(6′)-I ANT(4′)-I; experiment: Antibacterial activity, clinical isolate AG039; format: cell-based
# In short: as §5
# [6] = tested on: Engineered E. coli pH427 rmtF; experiment: Activity against G1405-methylated 16S-rRNA, E. coli pH427 rmtF; format: cell-based
# In short: (§6)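 Broth microdilution per CLSI M07-A10; readout MIC.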
# [7] = tested on: Engineered E. coli pH424 armA; experiment: Activity against G1405-methylated 16S-rRNA, E. coli pH424 armA; format: cell-based
# In short: as §6
# [8] = tested on: human cytosolic ribosomes; experiment: in-vitro translation assay, human cytosolic ribosomes; format: biochemical
# In short: as §1
# [9] = tested on: Engineered E. coli pH425 rmtB; experiment: Activity against G1405-methylated 16S-rRNA, E. coli pH425 rmtB; format: cell-based
# In short: as §6
# [10] = tested on: AG225, Acinetobacter baumannii pittii; experiment: MIC reference strain AG225; format: cell-based; conditions: Acinetobacter baumannii, reference strain; read-out: MIC AG225 A. baumannii
# In short: as §4
# [11] = tested on: AG215, Klebsiella pneumonia; experiment: MIC reference strain AG215; format: cell-based; conditions: Klebsiella pneumoniae, reference strain; read-out: MIC AG215 K. pneumonia
# In short: as §4
# AG032 P. aer. APH(3′)-II = experiment: Antibacterial activity, clinical isolate AG032; format: cell-based; parameters: unit not given here
# In short: as §5
# [12] = tested on: Engineered E. coli pH426 rmtC; experiment: Activity against G1405-methylated 16S-rRNA, E. coli pH426 rmtC; format: cell-based
# In short: as §6
# [13] = tested on: Engineered E. coli AG103 armA; experiment: Activity against G1405-methylated 16S-rRNA, E. coli AG103 armA; format: cell-based
# In short: as §6
# AG173 E. coli AAC(3)-IV = experiment: Antibacterial activity, clinical isolate AG173; format: cell-based
# In short: as §5
# bacterial ribosomes = experiment: in-vitro translation assay, bacterial ribosomes; format: biochemical
# In short: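 Each ribosome preparation (bacterial, human chimeric as the mitochondrial model, rabbit reticulocyte as the cytosolic model) drives in-vitro translation with the test compound present. Inhibition of translation gives the IC50.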
# [14] = tested on: AG290, Enterobacter cloacae; experiment: MIC reference strain AG290; format: cell-based; conditions: Enterobacter cloacae; reference strain; read-out: MIC AG290 E. cloacae
# In short: as §4
# AG038 MRSA = experiment: Antibacterial activity, clinical isolate AG038; format: cell-based; parameters: unit not given here
# In short: as §5
# [15] = tested on: clinical isolates carrying APH(3′)-VI; experiment: MIC broth microdilution, APH(3′)-VI; format: cell-based; conditions: IMM Univ. Zurich
# From the text: as §2, §3
# [16] = tested on: AG220, Pseudomonas aeruginosa ATCC27853; experiment: MIC reference strain AG220; format: cell-based; conditions: Pseudomonas aeruginosa, ATCC27853, reference strain ATCC27853; read-out: MIC AG220 P. aeruginosa
# In short: as §4
# [17] = tested on: AG033 P. aer. APH(3′)-II AAC(6′)-I; experiment: Antibacterial activity, clinical isolate AG033; format: cell-based; parameters: unit not given here
# In short: as §5
# [18] = tested on: clinical isolates carrying APH(3′)-II; experiment: MIC broth microdilution, APH(3′)-II; format: cell-based; conditions: clinical isolates, IMM Univ. Zurich; APH(3′)-II; read-out: MIC APH(3′)-II
# From the text: as §2, §3
# [19] = tested on: SZ380, Mycobacterium smegmatis; experiment: MIC reference strain SZ380; format: cell-based; conditions: Mycolicibacterium smegmatis, reference strain; read-out: MIC SZ380 M. smegmatis
# In short: as §4
# AG055 E. coli WT = experiment: Antibacterial activity, clinical isolate AG055; format: cell-based; parameters: unit not given here
# In short: as §5
# [20] = tested on: AG042 MRSA AAC(6′)-I ANT(4′)-I APH(2′); experiment: Antibacterial activity, clinical isolate AG042; format: cell-based; parameters: unit not given here
# In short: as §5
# [21] = tested on: clinical isolates carrying APH(3′)-III; experiment: MIC broth microdilution, APH(3′)-III; format: cell-based; conditions: IMM Univ. Zurich
# From the text: as §2, §3
# [22] = tested on: Engineered E. coli pH430 WT; experiment: Activity, engineered E. coli pH430 WT; format: cell-based; conditions: wild type
# In short: as §6
# AG003 E. coli AAC(3)-II = experiment: Antibacterial activity, clinical isolate AG003; format: cell-based
# In short: as §5
# AG031 P. aer. APH(3′)-II = experiment: Antibacterial activity, clinical isolate AG031; format: cell-based; parameters: unit not given here
# In short: as §5
smiles,measurement,setting,value
"CNC1C(OC2OC(CO)C(N)C(O)C2O)OC2CC(N)C(OC3C(N)CC(N)C(O)C3OC3OC(CO)C(OCCO)C3O)OC2C1O [DC178, 5-O-β-[3′″-O-(2-Hydroxyethyl)-D-ribofuranosyl] apramycin]",MIC,[1],> 32 µg/mL
same,IC50,[2],647 µM
same,MIC,ATCC19977 M. abcessus,32 µg/mL
same,MIC,[3],> 64 µg/mL
same,MIC,[4],8 µg/mL
same,Antibacterial activity AG001 E. coli WT,AG001 E. coli WT,32
same,Antibacterial activity AG163 E. coli APH(3′)-I,AG163 E. coli APH(3′)-I,8
same,Antibacterial activity AG039 MRSA AAC(6′)-I ANT(4′)-I,[5],32
same,Activity E. coli pH427 rmtF,[6],8
same,Activity E. coli pH424 armA,[7],2
same,IC50,[8],> 500 µM
same,Activity E. coli pH425 rmtB,[9],8
same,MIC,[10],16 µg/mL
same,MIC,[11],4 µg/mL
same,Antibacterial activity AG032 P. aer. APH(3′)-II,AG032 P. aer. APH(3′)-II,>32
same,Activity E. coli pH426 rmtC,[12],8
same,Activity E. coli AG103 armA,[13],2
same,Antibacterial activity AG173 E. coli AAC(3)-IV,AG173 E. coli AAC(3)-IV,32-64
same,IC50,bacterial ribosomes,0.22 µM
same,MIC,[14],8 µg/mL
same,Antibacterial activity AG038 MRSA,AG038 MRSA,16-32
same,MIC,[15],16 µg/mL
same,MIC,[16],> 64 µg/mL
same,Antibacterial activity AG033 P. aer. APH(3′)-II AAC(6′)-I,[17],>32
same,MIC,[18],8 µg/mL
same,MIC,[19],2 µg/mL
same,Antibacterial activity AG055 E. coli WT,AG055 E. coli WT,16
same,Antibacterial activity AG042 MRSA AAC(6′)-I ANT(4′)-I APH(2′),[20],32
same,MIC,[21],2 µg/mL
same,Activity E. coli pH430 WT,[22],8
same,Antibacterial activity AG003 E. coli AAC(3)-II,AG003 E. coli AAC(3)-II,16
same,Antibacterial activity AG031 P. aer. APH(3′)-II,AG031 P. aer. APH(3′)-II,>32
"CNC1C(OC2OC(CO)C(N)C(O)C2O)OC2CC(N)C(OC3C(N)CC(N)C(O)C3OC3OCC(O)C3O)OC2C1O (stereo not drawn) [DC146, 5-O-β-D—(Erythrofuranosyl) apramycin]",MIC,[1],32 µg/mL
same,IC50,[2],215 µM
same,MIC,[3],4 µg/mL
same,MIC,[4],16 µg/mL
same,Antibacterial activity AG001 E. coli WT,AG001 E. coli WT,16
same,Antibacterial activity AG163 E. coli APH(3′)-I,AG163 E. coli APH(3′)-I,8
same,Antibacterial activity AG039 MRSA AAC(6′)-I ANT(4′)-I,[5],16-32
same,Activity E. coli pH427 rmtF,[6],4
same,Activity E. coli pH424 armA,[7],4
same,IC50,[8],321 µM
same,Activity E. coli pH425 rmtB,[9],4
same,MIC,[10],8 µg/mL
same,MIC,[11],4 µg/mL
same,Antibacterial activity AG032 P. aer. APH(3′)-II,AG032 P. aer. APH(3′)-II,64
same,Activity E. coli pH426 rmtC,[12],8
same,Activity E. coli AG103 armA,[13],1
same,Antibacterial activity AG173 E. coli AAC(3)-IV,AG173 E. coli AAC(3)-IV,128
same,IC50,bacterial ribosomes,0.09 µM
same,MIC,[14],4 µg/mL
same,Antibacterial activity AG038 MRSA,AG038 MRSA,16-32
same,MIC,[15],8 µg/mL
same,MIC,[16],32 µg/mL
same,Antibacterial activity AG033 P. aer. APH(3′)-II AAC(6′)-I,[17],64-128
same,MIC,[18],4 µg/mL
same,Antibacterial activity AG055 E. coli WT,AG055 E. coli WT,16
same,Antibacterial activity AG042 MRSA AAC(6′)-I ANT(4′)-I APH(2′),[20],16
same,MIC,[21],1 µg/mL
same,Activity E. coli pH430 WT,[22],8
same,Antibacterial activity AG003 E. coli AAC(3)-II,AG003 E. coli AAC(3)-II,16
same,Antibacterial activity AG031 P. aer. APH(3′)-II,AG031 P. aer. APH(3′)-II,64
"CNC1C(OC2OC(CO)C(N)C(O)C2O)OC2CC(N)C(OC3C(N)CC(N)C(O)C3OC3OC(CNC=O)C(O)C3O)OC2C1O [DC177, 5-O-β-(5′″-Formamido-5′″-deoxy-D-ribefuranosyl) apramycin]",MIC,[1],> 32 µg/mL
same,IC50,[2],399 µM
same,MIC,ATCC19977 M. abcessus,16 µg/mL
same,MIC,[3],4 µg/mL
same,MIC,[4],8 µg/mL
same,Antibacterial activity AG001 E. coli WT,AG001 E. coli WT,8
same,Antibacterial activity AG163 E. coli APH(3′)-I,AG163 E. coli APH(3′)-I,8
same,Antibacterial activity AG039 MRSA AAC(6′)-I ANT(4′)-I,[5],16-32
same,Activity E. coli pH427 rmtF,[6],8
same,Activity E. coli pH424 armA,[7],8
same,IC50,[8],> 500 µM
same,Activity E. coli pH425 rmtB,[9],8
same,MIC,[10],16 µg/mL
same,MIC,[11],4 µg/mL
same,Antibacterial activity AG032 P. aer. APH(3′)-II,AG032 P. aer. APH(3′)-II,>32
same,Activity E. coli pH426 rmtC,[12],16
same,Activity E. coli AG103 armA,[13],2-4
same,Antibacterial activity AG173 E. coli AAC(3)-IV,AG173 E. coli AAC(3)-IV,>64
same,IC50,bacterial ribosomes,0.23 µM
same,MIC,[14],8 µg/mL
same,Antibacterial activity AG038 MRSA,AG038 MRSA,32
same,MIC,[15],8 µg/mL
same,MIC,[16],> 64 µg/mL
same,Antibacterial activity AG033 P. aer. APH(3′)-II AAC(6′)-I,[17],>32
same,MIC,[18],8 µg/mL
same,MIC,[19],2 µg/mL
same,Antibacterial activity AG055 E. coli WT,AG055 E. coli WT,16
same,Antibacterial activity AG042 MRSA AAC(6′)-I ANT(4′)-I APH(2′),[20],32
same,MIC,[21],2 µg/mL
same,Activity E. coli pH430 WT,[22],8
same,Antibacterial activity AG003 E. coli AAC(3)-II,AG003 E. coli AAC(3)-II,8
same,Antibacterial activity AG031 P. aer. APH(3′)-II,AG031 P. aer. APH(3′)-II,>32
